According to patent publication US9258995B2, “Organ cold storage composition and methods of use” (BOARD OF TRUSTEES OF THE UNIVERSITY OF ARKANSAS, priority 2009, dated 2016):

Key:
NRK cells [1] = assay: LDH cytotoxicity assay, CS and CS plus rewarming; format: cell-based; settings: 1 μM
Protocol: (§1) Normal rat kidney proximal tubular cells (NRK-52E; American Type Culture Collection, Manassas, Va.) were maintained in six-well 100 or 150-mm, or 150-mm plates in a humidified incubator gassed with 5% CO2 and 95% air at 37° C. in DMEM (Invitrogen, Carlsbad, Calif.) containing 5% fetal calf serum (FCS). Cells were grown to 60% confluence and divided into four treatment groups: 1) untreated (Untx), 2) CS, 3) CS+MitoQ, and 4) CS+DecylTPP. Untreated cells remained at 37° C. in DMEM containing 5% FCS (group 1). CS was initiated by washing cells with cold PBS (Invitrogen) twice and storing them in UW/Viaspan solution alone (4 h at 4° C.) (group 2), CS+MitoQ (1 μM) (group 3), or CS+DecylTPP (1 μM) (group 4). In separate experiments, cells were exposed to CS plus RW by replacing UW solution alone or UW solution containing MitoQ or DecylTPP with DMEM containing 5% FCS overnight (18 h at 37° C.).
Cell cytotoxicity was determined using the LDH-Cytotoxicity Assay Kit II (Biovision Research Products, Mountain View, Calif.) according to the manufacturer's instructions. Absorbance was measured at 450 nm using a SpectraMax 190 microplate reader and SpectraMax software (Molecular Devices, Sunnyvale, Calif.). Renal cell death was determined using TUNEL staining. Kidney sections were deparaffinized, rehydrated, and exposed to antigen retrieval (20-min incubation at 95° C. with 10 mM sodium citrate buffer, pH 6.0) followed by washing with distilled water and quenching of endogenous peroxidase. Sections were immersed in TdT labeling buffer and then incubated in a humidified chamber with the labeling reaction mix from the TAGS 2 TdT-DAB In Situ Apoptosis Detection kit (Trevigen, Inc., Gaithersburg, Md.) for 1 h at room temperature. The reaction was stopped with TdT stop buffer, and slides were subsequently washed with PBS. Sections were incubated for 10 min with streptavidin-HRP followed by development with diaminobenzidine solution, counterstaining with Mayer's hematoxylin, dehydration, and mounting with Cytoseal-60. The amount of cell death was calculated by averaging the number of cells positive for TUNEL (brown staining) in 10 different fields (cortex and medulla) (20×). All images were taken at equal exposure times (40×oil).

rat kidneys [2] = assay: Periodic acid-Schiff morphological assessment of renal injury during CS; settings: 4 h CS, 100 μM
Protocol: (§2) All animals were treated according to the National Institutes of Health Guide for the Care and Use of Laboratory Animals and the University of Arkansas for Medical Sciences Institutional Animal Care and Use Committee guidelines. Male Fischer 344 inbred rats (Charles Rivers Laboratories, Inc., Wilmington, Mass.) weighing between 250 and 300 g were anesthetized with ethrane, followed by shaving and prepping with betadine. […] Bulldog clamps were placed on the aorta and vena cava (proximal and distal to the renal vessels) to prevent blood flow to the kidneys. A 22-gauge surgical needle was used to puncture the rat's aorta to flush the renal grafts with saline (10 ml per kidney) using a small catheter. Once the kidneys started to turn light brown (perfusion), another vent was formed in the vena cava to allow blood flow from the kidneys. Once both kidneys were completely flushed, the right kidney was recovered and served as a control (group 1), and the left kidney was exposed to CS alone for 4 h at 4° C. […]
Renal sections were assessed for tissue injury using the periodic acid-Schiff reaction. […] Morphological evaluation of tubular dilation, brush border loss, and cellular debris/tubular cast formation were performed blindly with light microscopy and assessed semiquantitatively according to the following scoring system: 0, no changes; 1, mild changes; 2, moderate changes, and 3, severe changes.

rat kidneys [3] = assay: MitoSOX Red mitochondrial superoxide generation, cold storage ex vivo model; settings: rat kidneys, 4 h CS at 4° C., 100 μM
Protocol: as §2, with “C. (group 2). In additional experiments, kidneys were flushed with saline through the aorta using a small catheter followed by flushing the right kidney with saline containing MitoQ (100 μM) and the left kidney with saline containing DecylTPP (100 μM) (10 ml per kidney). Tissues were recovered and stored in CS+MitoQ (100 μM; right kidney) or CS+DecylTPP (100 μM; left kidney) for 4 h at 4° C. (groups 3 and 4, respectively).” for “C.”
(§3) MitoSOX Red (Invitrogen) was used to measure mitochondrial superoxide generation during CS. […] Fluorescence was visualized using an Eclipse E800 microscope (Nikon, Melville, N.Y.) with a rhodamine filter using a water immersion objective (60×). Fluorescent images of NRK cells were captured with equal exposure times and quantified by averaging the mean intensity fluorescence of five random cells in three different fields using Nikon N is Elements software. In separate experiments, cells were grown on coverslips, preloaded with MitoSOX Red before treatment (groups 1-4), and evaluated for mitochondrial superoxide generation using a Hitachi F-2500 spectrofluorometer (Hitachi, Tokyo, Japan) equipped with a coverslip holder using two different excitation wavelengths: 396 and 510 nm with the emission measured at 580 nm as previously described. In addition, rat kidneys were monitored for mitochondrial superoxide generation by flushing kidneys with saline through the aorta using a small catheter as described under Cold Storage Ex Vivo Model, followed by saline containing MitoSOX Red (5 μM; 10 ml/kidney) before treatment (groups 1-4). Paraffin sections were analyzed using the rhodamine filter on the Nikon Eclipse 800 microscope (20×).

NRK cells [4] = assay: MitoSOX Red mitochondrial superoxide generation, cold storage in vitro model; format: cell-based, rat; settings: 4 h CS at 4° C. in UW, 1 μM
Protocol: Normal rat kidney proximal tubular cells (NRK-52E; American Type Culture Collection, Manassas, Va.) were maintained in six-well 100 or 150-mm, or 150-mm plates in a humidified incubator gassed with 5% CO2 and 95% air at 37° C. in DMEM (Invitrogen, Carlsbad, Calif.) containing 5% fetal calf serum (FCS). Cells were grown to 60% confluence and divided into four treatment groups: 1) untreated (Untx), 2) CS, 3) CS+MitoQ, and 4) CS+DecylTPP. Untreated cells remained at 37° C. in DMEM containing 5% FCS (group 1). […]
as §3, with “In addition, rat kidneys were monitored for mitochondrial superoxide generation by flushing kidneys with saline through the aorta using a small catheter as described under Cold Storage Ex Vivo Model, followed by saline containing MitoSOX Red (5 μM; 10 ml/kidney) before treatment (groups 1-4). Paraffin sections were analyzed using the rhodamine filter on the Nikon Eclipse 800 microscope (20×).” left out

[5] = tested on: mitochondrial respiratory complex II; assay: Mitochondrial respiratory complex activity, rat kidney mitochondria after CS; settings: rat kidneys, 4-h CS, 100 μM
Protocol: (§4) All animals were treated according to the National Institutes of Health Guide for the Care and Use of Laboratory Animals and the University of Arkansas for Medical Sciences Institutional Animal Care and Use Committee guidelines. Male Fischer 344 inbred rats (Charles Rivers Laboratories, Inc., Wilmington, Mass.) weighing between 250 and 300 g were anesthetized with ethrane, followed by shaving and prepping with betadine. […] Bulldog clamps were placed on the aorta and vena cava (proximal and distal to the renal vessels) to prevent blood flow to the kidneys. A 22-gauge surgical needle was used to puncture the rat's aorta to flush the renal grafts with saline (10 ml per kidney) using a small catheter. Once the kidneys started to turn light brown (perfusion), another vent was formed in the vena cava to allow blood flow from the kidneys. Once both kidneys were completely flushed, the right kidney was recovered and served as a control (group 1), and the left kidney was exposed to CS alone for 4 h at 4° C. (group 2). In additional experiments, kidneys were flushed with saline through the aorta using a small catheter followed by flushing the right kidney with saline containing MitoQ (100 μM) and the left kidney with saline containing DecylTPP (100 μM) (10 ml per kidney). Tissues were recovered and stored in CS+MitoQ (100 μM; right kidney) or CS+DecylTPP (100 μM; left kidney) for 4 h at 4° C. (groups 3 and 4, respectively). A thin middle section from all of the kidneys were cut and immediately fixed in 10% formalin before being embedded in paraffin for sectioning (4 μm) and histological evaluation. The remaining portion of the kidneys were quickly frozen in liquid nitrogen and stored in −80° C. until needed for biochemistry analyses.
(§5) NRK cell and rat kidney mitochondria were isolated by centrifugation on a sucrose density gradient. The activity of mitochondrial respiratory complexes I, II, III, or IV were assayed spectrophotometrically using 100 μg of mitochondrial protein at 30° C. as previously described.

[6] = tested on: mitochondrial respiratory complex I; assay: as above; settings: rat kidneys, 4-h CS, 100 μM
Protocol: as §4, §5

NRK cells [7] = assay: Nitrotyrosine immunocytochemistry, CS plus rewarming; format: cell-based, rat; settings: 4-h CS plus overnight (18 h) RW, 1 μM added during CS
Protocol: as §1
(§6) NRK cells (groups 1-4) were assessed for nitrotyrosine formation as previously described. […] Nitrotyrosine staining was evaluated and captured with equal exposure times using a Nikon Eclipse 800 microscope (40×oil). Images were quantified by averaging the mean intensity fluorescence of five random cells in three different fields using Nikon N is Elements software. Renal tissue sections were assessed for the presence of nitrotyrosine protein adducts by nitrotyrosine immunohistochemistry. […]

rat kidneys [8] = assay: TUNEL staining of renal cell death during CS; settings: 4 h CS, 100 μM
Protocol: as §2, with “kidneys.” for “kidneys. Once both kidneys were completely flushed, the right kidney was recovered and served as a control (group 1), and the left kidney was exposed to CS alone for 4 h at 4° C.”
Cell cytotoxicity was determined using the LDH-Cytotoxicity Assay Kit II (Biovision Research Products, Mountain View, Calif.) according to the manufacturer's instructions. Absorbance was measured at 450 nm using a SpectraMax 190 microplate reader and SpectraMax software (Molecular Devices, Sunnyvale, Calif.). Renal cell death was determined using TUNEL staining. […] The amount of cell death was calculated by averaging the number of cells positive for TUNEL (brown staining) in 10 different fields (cortex and medulla) (20×). […]

NRK cells [9] = assay: Nitrotyrosine immunocytochemistry during CS; format: cell-based, rat; settings: 4 h CS, 1 μM
Protocol: as §1, §6

[10] = tested on: mitochondrial respiratory complex II; assay: Mitochondrial respiratory complex activity, NRK cell mitochondria after CS; format: cell-based, rat; settings: NRK cells, 4-h CS, 1 μM
Protocol: as §1, §5

[11] = tested on: mitochondrial respiratory complex I; assay: as above; format: cell-based, rat; settings: NRK cells, 4-h CS, 1 μM
Protocol: as §1, §5

NRK cells [12] = settings: 24 h CS of NRK cells; cited from earlier work

SMILES | effect on cell death (LDH cytotoxicity) (NRK cells [1]; CS alone) | effect on cell death (LDH cytotoxicity) (NRK cells [1]; CS.RW) | renal histology / renal injury (periodic acid-Schiff staining) (rat kidneys [2]) | mitochondrial superoxide generation (MitoSOX Red) (rat kidneys [3]) | CS-induced mitochondrial superoxide generation (MitoSOX Red) (NRK cells [4]) | complex II inactivation [5] | complex I inactivation [6] | nitrotyrosine staining during CS.RW (NRK cells [7]) | protection against cell death (TUNEL) (rat kidneys [8]) | effect on CS-mediated nitrotyrosine formation (NRK cells [9]) | complex II inactivation [10] | complex I inactivation [11] | nitrotyrosine staining (one marker of peroxynitrite) (NRK cells [12])
CCCCCCCCCC[P+](c1ccccc1)(c1ccccc1)c1ccccc1.[Br-] [DecylTPP, decyltriphenylphosphonium bromide, reference compound] | did not reduce | did not reduce | did not reverse renal injury | comparable levels of mitochondrial superoxide to kidneys exposed to CS alone | did not offer any protection | did not have any effect | did not have any effect | no effect | no protective benefits | did not decrease | no significant effect | no significant effect | –
CNC(=N)NCCC[C@H](N)C(=O)O.O=C(O)CC(O)(CC(=O)O)C(=O)O [N^5-[imino(methylamino)methyl]-L-ornithine citrate] | – | – | – | – | – | – | – | – | – | – | – | – | inhibited
